Source: patent publication US11357230B2, “Herbicidal amides” (FMC Corporation, priority 2017, dated 2022)

How the values were obtained:
Type in all cases: in vivo
[1] = tested on: barnyardgrass (Echinochloa crus-galli); assay: Test A postemergence, barnyardgrass; details: approximately 10 d
Description: (§1) Seeds of plant species selected from barnyardgrass (Echinochloa crus-galli), kochia (Kochia scoparia), ragweed (common ragweed, Ambrosia elatior), ryegrass, Italian (Italian ryegrass, Lolium multiflorum), foxtail, green (green foxtail, Setaria viridis), and pigweed (Amaranthus retroflexus) were planted into a blend of loam soil and sand and treated preemergence with a directed soil spray using test chemicals formulated in a non-phytotoxic solvent mixture which included a surfactant. At the same time, plants selected from these weed species and also wheat (Triticum aestivum), corn (Zea mays), blackgrass (Alopecurus myosuroides), and galium (catchweed bedstraw, Galium aparine) were planted in pots containing the same blend of loam soil and sand and treated with postemergence applications of test chemicals formulated in the same manner. Plants ranged in height from 2 to 10 cm and were in the one- to two-leaf stage for the postemergence treatment. Treated plants and untreated controls were maintained in a greenhouse for approximately 10 d, after which time all treated plants were compared to untreated controls and visually evaluated for injury. Plant response ratings, summarized in Table A, are based on a 0 to 100 scale where 0 is no effect and 100 is complete control. A dash (-) response means no test result.

[2] = tested on: blackgrass (Alopecurus myosuroides); assay: Test A postemergence, blackgrass; details: approximately 10 d
Description: as §1

corn (Zea mays) = assay: Test A postemergence, corn; details: approximately 10 d
Description: as §1

Foxtail, Giant [3] = assay: Test A postemergence, giant foxtail; details: approximately 10 d
[4] = tested on: galium (catchweed bedstraw, Galium aparine); assay: Test A postemergence, galium; details: approximately 10 d
Description: as §1

kochia (Kochia scoparia) [5] = assay: Test A postemergence, kochia; details: approximately 10 d
Description: as §1

[6] = tested on: pigweed (Amaranthus retroflexus); assay: Test A postemergence, pigweed; details: approximately 10 d
Description: as §1

[7] = tested on: ragweed (common ragweed, Ambrosia elatior); assay: Test A postemergence, ragweed; details: approximately 10 d
Description: as §1

[8] = tested on: ryegrass, Italian (Italian ryegrass, Lolium multiflorum); assay: Test A postemergence, Italian ryegrass; details: approximately 10 d
Description: as §1

[9] = tested on: wheat (Triticum aestivum); assay: Test A postemergence, wheat; details: approximately 10 d
Description: as §1

[10] = tested on: barnyardgrass (Echinochloa crus-galli); assay: Test A preemergence, barnyardgrass; details: approximately 10 d
Description: as §1

Foxtail, Giant [11] = assay: Test A preemergence, giant foxtail; details: approximately 10 d
kochia (Kochia scoparia) [12] = assay: Test A preemergence, kochia; details: approximately 10 d
Description: as §1

[13] = tested on: pigweed (Amaranthus retroflexus); assay: Test A preemergence, pigweed; details: approximately 10 d
Description: as §1

[14] = tested on: ragweed (common ragweed, Ambrosia elatior); assay: Test A preemergence, ragweed; details: approximately 10 d
Description: as §1

[15] = tested on: ryegrass, Italian (Italian ryegrass, Lolium multiflorum); assay: Test A preemergence, Italian ryegrass; details: approximately 10 d
Description: as §1

[16] = tested on: barnyardgrass (Echinochloa crus-galli); assay: Test B flooded paddy test, barnyardgrass; details: 250 g ai/ha, Flood (paddy water), 13 to 15 d
Experimental: (§2) Plant species in the flooded paddy test selected from rice (Oryza sativa), sedge, umbrella (small-flower umbrella sedge, Cyperus difformis), ducksalad (Heteranthera limosa), and barnyardgrass (Echinochloa crus-galli) were grown to the 2-leaf stage for testing. At time of treatment, test pots were flooded to 3 cm above the soil surface, treated by application of test compounds directly to the paddy water, and then maintained at that water depth for the duration of the test. Treated plants and controls were maintained in a greenhouse for 13 to 15 d, after which time all species were compared to controls and visually evaluated. Plant response ratings, summarized in Table B, are based on a scale of 0 to 100 where 0 is no effect and 100 is complete control. A dash (-) response means no test result.

[17] = tested on: ducksalad (Heteranthera limosa); assay: Test B flooded paddy test, ducksalad; details: 250 g ai/ha, Flood (paddy water), 13 to 15 d
Experimental: as §2

rice (Oryza sativa) = assay: Test B flooded paddy test, rice; details: 250 g ai/ha, Flood (paddy water), 13 to 15 d
Experimental: as §2

[18] = tested on: sedge, umbrella (small-flower umbrella sedge, Cyperus difformis); assay: Test B flooded paddy test, umbrella sedge; details: 250 g ai/ha, Flood (paddy water), 13 to 15 d
Experimental: as §2

Compound: CNN=C1[C@H](C(=O)Nc2cccc(F)c2F)[C@@H](c2ccc(C(F)(F)F)cc2)CN1C (relative stereo) [Compound 3]
- Plant response rating (0 to 100 scale, 0 is no effect, 100 is complete control) ([1]; 31 g ai/ha): 60
- Plant response rating (0 to 100 scale, 0 is no effect, 100 is complete control) ([1]; 125 g ai/ha): 70
- Plant response rating (0 to 100 scale, 0 is no effect, 100 is complete control) ([2]; 31 g ai/ha): 40
- Plant response rating (0 to 100 scale, 0 is no effect, 100 is complete control) ([2]; 125 g ai/ha): 80
- Plant response rating (0 to 100 scale, 0 is no effect, 100 is complete control) (corn (Zea mays); 31 g ai/ha): 20
- Plant response rating (0 to 100 scale, 0 is no effect, 100 is complete control) (corn (Zea mays); 125 g ai/ha): 30
- Plant response rating (0 to 100 scale, 0 is no effect, 100 is complete control) (Foxtail, Giant [3]; 31 g ai/ha): 40
- Plant response rating (0 to 100 scale, 0 is no effect, 100 is complete control) (Foxtail, Giant [3]; 125 g ai/ha): 70
- Plant response rating (0 to 100 scale, 0 is no effect, 100 is complete control) ([4]; 31 g ai/ha): 60
- Plant response rating (0 to 100 scale, 0 is no effect, 100 is complete control) ([4]; 125 g ai/ha): 80
- Plant response rating (0 to 100 scale, 0 is no effect, 100 is complete control) (kochia (Kochia scoparia) [5]; 31 g ai/ha): 20
- Plant response rating (0 to 100 scale, 0 is no effect, 100 is complete control) (kochia (Kochia scoparia) [5]; 125 g ai/ha): 60
- Plant response rating (0 to 100 scale, 0 is no effect, 100 is complete control) ([6]; 31 g ai/ha): 0
- Plant response rating (0 to 100 scale, 0 is no effect, 100 is complete control) ([6]; 125 g ai/ha): 90
- Plant response rating (0 to 100 scale, 0 is no effect, 100 is complete control) ([7]; 31 g ai/ha): 0
- Plant response rating (0 to 100 scale, 0 is no effect, 100 is complete control) ([7]; 125 g ai/ha): 50
- Plant response rating (0 to 100 scale, 0 is no effect, 100 is complete control) ([8]; 31 g ai/ha): 0
- Plant response rating (0 to 100 scale, 0 is no effect, 100 is complete control) ([8]; 125 g ai/ha): 40
- Plant response rating (0 to 100 scale, 0 is no effect, 100 is complete control) ([9]; 31 g ai/ha): 0
- Plant response rating (0 to 100 scale, 0 is no effect, 100 is complete control) ([9]; 125 g ai/ha): 30
- Plant response rating (0 to 100 scale, 0 is no effect, 100 is complete control) ([10]; 31 g ai/ha): 30
- Plant response rating (0 to 100 scale, 0 is no effect, 100 is complete control) ([10]; 125 g ai/ha): 90
- Plant response rating (0 to 100 scale, 0 is no effect, 100 is complete control) (Foxtail, Giant [11]; 31 g ai/ha): 70
- Plant response rating (0 to 100 scale, 0 is no effect, 100 is complete control) (Foxtail, Giant [11]; 125 g ai/ha): 90
- Plant response rating (0 to 100 scale, 0 is no effect, 100 is complete control) (kochia (Kochia scoparia) [12]; 31 g ai/ha): 0
- Plant response rating (0 to 100 scale, 0 is no effect, 100 is complete control) (kochia (Kochia scoparia) [12]; 125 g ai/ha): 30
- Plant response rating (0 to 100 scale, 0 is no effect, 100 is complete control) ([13]; 31 g ai/ha): 0
- Plant response rating (0 to 100 scale, 0 is no effect, 100 is complete control) ([13]; 125 g ai/ha): 70
- Plant response rating (0 to 100 scale, 0 is no effect, 100 is complete control) ([14]; 31 g ai/ha): 0
- Plant response rating (0 to 100 scale, 0 is no effect, 100 is complete control) ([14]; 125 g ai/ha): 0
- Plant response rating (0 to 100 scale, 0 is no effect, 100 is complete control) ([15]; 31 g ai/ha): 0
- Plant response rating (0 to 100 scale, 0 is no effect, 100 is complete control) ([15]; 125 g ai/ha): 90
- Plant response rating (scale of 0 to 100, 0 is no effect, 100 is complete control) [16]: 70
- Plant response rating (scale of 0 to 100, 0 is no effect, 100 is complete control) [17]: 100
- Plant response rating (scale of 0 to 100, 0 is no effect, 100 is complete control) (rice (Oryza sativa)): 0
- Plant response rating (scale of 0 to 100, 0 is no effect, 100 is complete control) [18]: 0
